≈ marks a conversion by molar mass, not a printed value.
Legend:
[1] = test system: L. lactis MG1363; conditions: MG1363
[2] = in vitro; conditions: human
Protocol: (§1) ATP levels were measured by adding 50 μL of CellTiter-Glo reagent to each well and after 5 minutes of incubation luminescence was measured with SpectraMax i3.
(§2) 96-well plates were seeded with HEK293 cells at concentration of 30,000 cells per well in 100 μL of DMEM growth media supplemented with 1% NEAA and 10% FBS. Border wells were filled with 100 μL of sterile PBS. The next day compounds were added to cells. Compounds were first 2× diluted in 96-well V-bottom plate in PBS. After that compounds were mixed with media in 96-deep-well plate for final concentrations. Growth media from 3 plates was aspirated and replaced with 100 μL of prepared compounds. Compounds were tested in duplicate. ATP levels were measured by adding 50 μL of CellTiter-Glo reagent to each well and after 5 minutes of incubation luminescence was measured with SpectraMax i3. […] The potential effects were then calculated and presented as IC50 values (μg/mL).

[3] = test system: HEK293 cells; test: in vitro
Protocol: as §1, §2

[4] = test system: E. coli LMG15862; test: microbe, parasite or virus in culture; format: cell-based, Escherichia coli; conditions: LMG15862
Protocol: (§3) Escherichia coli, Klebsiella pneumoniae, Pseudomonas aeruginosa, Acinetobacter baumannii, Enterobacter aerogenes were grown in Luria-Bertani (LB) broth shaken (200 rpm) or on LB agar at 37° C. […] MICs tests were performed in duplicate by a liquid growth inhibition microdilution assays in sterilized polypropylene microtiter plates according to Wiegand and […] [27]. […] The suspension was diluted in a ratio of 1:100 using Mueller Hinton Broth (MHB) and the final inoculum is 5*10^5 CFU/mL. […] The antimicrobials were diluted serially by 1/2 one by one and 50 uL diluted bacterial suspension were added to each well to make the final volume to be 100 uL. Growth control was accomplished by remove 10 uL from well 11 and dilute 1000 times to plate 1/10 suspension on the solid medium. […] The number of colonies on the control agar plate should be around 50 to ensure the concentration of the inoculum and the effectiveness of the experiment. The lowest concentration of the antimicrobials that inhibits visible growth of the indicator is identified as MIC.

[5] = test system: human red blood cells (HRBc); test: Hemolytic test; conditions: red cells of human, 1 h
Protocol: Fresh human red blood cells (HRBc) were used for the hemolytic tests. After incubation with different concentrations of test compounds at 37° C. for 1 hour, the absorbance of the supernatant were measured.

[6] = test system: Escherichia coli ATCC BAA-2452; test: microbe, parasite or virus in culture; conditions: ATCC BAA-2452
Protocol: (§4) Testing was performed according to CLSI (Clinical Laboratory Standards Institute) guidelines. Read out of the study was determination of MIC—minimal inhibitory concentration expressed in μg/mL.
(§5) Out of these PBS solutions, 76.8 μL was transferred to 1423.2 μL of MH media in deep well for testing compound alone. […] Out of these working solutions 100 μL were transferred to wells in the third column of 96-well assay plates. Assay plates were previously filled with 50 μL of MH media in all wells except for the wells in the third column.
(§6) Microorganisms used were all revived from skim milk storage at −70° C. by plating them on MH agar plates. The following day a single colony of each microorganism was again streaked on fresh agar plates. The next day, using direct colony suspension method, broth solutions that achieve turbidity equivalent to 0.5 McFarland standard for each microorganism were prepared. […] Out of these suspensions, actual inoculums were prepared by diluting them 100× with MH media giving final microorganism count of 2-8×10^5 CFU/mL. For each strain of microorganisms, 20 mL of these inoculum solutions were prepared. From the second to the twelfth column of 96-well plates, 50 μL of these solutions were transferred per well. To the first column, 50 μL per well of pure growth media was added. In this manner the first column was used as sterility control of media used, the second column was used as control of microorganism's growth and the rest of the plate was used for MIC determination. All plates were incubated for 16-24 h at 37° C.
(§7) MIC value was determined by visual inspection of bacterial growth within 96-well plates. The first column in which there was no visible growth of bacteria was determined as MIC value for peptide or combination tested in that particular row.

[7] = test system: Pseudomonas aeruginosa B1954, clinical isolate; test: microbe, parasite or virus in culture; conditions: B1954, clinical isolate
Protocol: as §4, §5, §6, §7

[8] = test system: Klebsiella pneumoniae ATCC BAA-2524; test: microbe, parasite or virus in culture; conditions: ATCC BAA-2524
Protocol: as §4, §5, §6, §7

[9] = test system: Acinetobacter baumannii B2026, clinical isolate; test: microbe, parasite or virus in culture; conditions: B2026, clinical isolate
Protocol: as §4, §5, §6, §7

[10] = test system: Acinetobacter baumannii ATCC BAA-1605; test: microbe, parasite or virus in culture; conditions: ATCC BAA-1605
Protocol: as §4, §5, §6, §7

[11] = test system: Pseudomonas aeruginosa ATCC BAA-2108; test: microbe, parasite or virus in culture; conditions: ATCC BAA-2108
Protocol: as §4, §5, §6, §7

[12] = test system: E. aerogenes LMG 02094; test: microbe, parasite or virus in culture; format: cell-based, Enterobacter aerogenes; conditions: LMG 02094
Protocol: as §3

[13] = test system: A. baumannii LMG01041; test: microbe, parasite or virus in culture; format: cell-based, Acinetobacter baumannii; conditions: LMG01041
Protocol: as §3

MIC value of antimicrobial compounds alone [1]: 16 µM
IC50 [2]: ≥ 42.8 µM
Effect on ATP levels [3]: do not affect the ATP levels
MIC value [4]: 4 µM (≈ 5.98 µg/mL)
MIC value [6]: 5.35 µM
MIC value [7]: 85.62 µM
MIC value [8]: >85.62 µM
MIC value [9]: 10.7 µM
MIC value [10]: 10.7 µM
MIC value [11]: >85.62 µM
MIC value [12]: 32 µM (≈ 47.8 µg/mL)
MIC value [13]: 8 µM (≈ 12 µg/mL)
SMILES: CC[C@@H](C)[C@@H](NC(=O)[C@H](N)CCCNC(=N)N)C(=O)N[C@@H](C(=O)N[C@H](CCC(N)=O)C(=O)N[C@H](CCCNC(=N)N)C(=O)N[C@@H](C(=O)N[C@H](CCCCN)C(=O)N[C@H](CCCCN)C(=O)N[C@H](Cc1c[nH]c2ccccc12)C(=O)N[C@H](CC(C)C)C(=O)N[C@H](CCCNC(=N)N)C(N)=O)[C@H](C)CC)C(C)C [GNP-D8]
HC50 (hemolytic activity) [5]: >200 µM
